Measurements reported in patent publication US9556202B2, “Sulfonamide derivatives and methods of use thereof for improving the pharmacokinetics of a drug” (MERCK SHARP & DOHME CORP., priority 2012, dated 2017).

Tests used:
[1] = biological target: T1, CYP3A4 (Homo sapiens, UniProt P08684); experiment: IC50 vs CYP3A by inhibition of lopinavir metabolism in human liver microsomes; assay type: biochemical; conditions: human liver microsomes 0.01 mg/mL, 1.5 μM lopinavir, 8 min 37° C.; test conc. e.g. 0.098-100 nM; unit inferred; read-out: 3A4(LPV)
T1 construct: 0.01 mg/mL protein human liver microsomes (BD Gentest); tissue BD Gentest; host or cells: human liver microsomes
Experimental: Determination of IC50 Vs CYP3A by Measurement of Inhibition of Lopinavir Metabolism
This assay was performed in a standard 96-well plate design. IC50 values were calculated from the percent inhibition observed for each test compound at 6 concentrations (for example, 0.098, 0.391, 1.56, 6.25, 25 and 100 nM). The incubation substrate mix contains 1.5 μM lopinavir, 0.01 mg/mL protein human liver microsomes (BD Gentest), 1 mM NAPDH, 3.3 mM MgCl2 and 100 mM potassium phosphate buffer (pH 7.4). The production of the sum of three hydroxylated metabolites (M2: 6-hydroxy lopinavir, M3: 4-hydroxy lopinavir, M4: 4-hydroxy lopinavir (epimer of M3), Kumar et al., 1999) was determined after incubation for 8 min at 37° C. Quantitation of the metabolite peak area ratio against an internal standard (tolbutamide) was determined by LC/MS/MS analysis following acetonitrile treatment of the incubations.
(§1) Samples were analyzed in the MRM mode with a SCIEX API-4000 mass spectrometer (Applied Biosystems, Foster City, Calif.), with a Shimadzu LC-20 AD pump (Shimadzu corporation, Kyoto, JP) and a CTC PAL autosampler (Agilent Technologies, Switzerland). A Phenomenex, Luna, 5 μm, 100 A, 2.00×30 mm HPLC column was used for the separation. The mobile phases were: (A) 0.1% formic acid in water and (B) 0.1% formic acid in acetonitrile. The binary gradient was as follows.
(§2) The peak area ratio of the analyte to the internal standard was used to quantify the metabolite. The values of peak area ratios in the presence of test compound were compared to those of maximum or minimum controls and were expressed as % inhibition by interpolating between the maximum and minimum peak area ratios. Incubations with no inhibitor were defined as the maxima and with 5 μM ketoconazole were defined as the minima.
(§3) The following equation was used to calculate the % inhibition: [1−[(X−Low control)/(High control−Low control)]]*100
For the IC50 calculation, SigmaPlot was used to plot the mean % inhibition versus the test compound concentrations and for non-linear regression analysis of the data. Depending on the range of data points defining the inhibition curve, the data may have been fit to the 4-parameter logistic equation.

[2] = biological target: T2, CYP2D6 (Homo sapiens, UniProt P10635); experiment: Cocktail CYP inhibition assay in human liver microsomes, dextromethorphan O-demethylation; assay type: in vitro ADME; conditions: human liver microsomes 0.1 mg/mL, 5 μM dextromethorphan, 10 min 37° C.; unit inferred
T2 construct: 0.1 mg/mL protein human liver microsomes (BD Gentest); tissue BD Gentest; host or cells: human liver microsomes
Experimental: Determination of IC50 in a Cocktail Assay for CYPs 1A2, 2C9, 2C19, 2D6 and 3A4
This assay was performed in a standard 96-well plate design. IC50 values were calculated from the percent inhibition observed for each test compound at 6 concentrations (for example, 0.0032, 0.016, 0.08, 0.4, 2 and 10 μM). The incubation substrate mix contains 10 μM phenacetin (1A2), 5 μM diclofenac (2C9), 30 μM mephenytoin (2C19), 5 μM dextromethorphan (2D6) and 2 μM midazolam (3A4), 0.1 mg/mL protein human liver microsomes (BD Gentest), 1 mM NAPDH, 3.3 mM MgCl2 and 100 mM potassium phosphate buffer (pH 7.4). The production of the metabolite of each probe substrate was determined after incubation for 10 min at 37° C. Quantitation of the metabolite peak area ratio against an internal standard (tolbutamide) was determined by LC/MS/MS analysis following acetonitrile treatment of the incubations.
as §1
as §2, with “maxima.” for “maxima and with 5 μM ketoconazole were defined as the minima.”
as §3
For the IC50 calculation, SigmaPlot was used to plot the mean % inhibition versus the test compound concentrations and for non-linear regression analysis of the data. […]

[3] = biological target: T3, human CYP11B2 (Homo sapiens, UniProt P19099); experiment: IC50 vs CYP11B2 by aldosterone synthesis in V79 cells (HTRF); assay type: cell-based; conditions: V79 cells expressing human CYP11B2, 750 nM DOC, test conc. 0.5-10000 nM, unit inferred
T3 construct: expressed in transfected cells
T3 sequence (P19099 25-503): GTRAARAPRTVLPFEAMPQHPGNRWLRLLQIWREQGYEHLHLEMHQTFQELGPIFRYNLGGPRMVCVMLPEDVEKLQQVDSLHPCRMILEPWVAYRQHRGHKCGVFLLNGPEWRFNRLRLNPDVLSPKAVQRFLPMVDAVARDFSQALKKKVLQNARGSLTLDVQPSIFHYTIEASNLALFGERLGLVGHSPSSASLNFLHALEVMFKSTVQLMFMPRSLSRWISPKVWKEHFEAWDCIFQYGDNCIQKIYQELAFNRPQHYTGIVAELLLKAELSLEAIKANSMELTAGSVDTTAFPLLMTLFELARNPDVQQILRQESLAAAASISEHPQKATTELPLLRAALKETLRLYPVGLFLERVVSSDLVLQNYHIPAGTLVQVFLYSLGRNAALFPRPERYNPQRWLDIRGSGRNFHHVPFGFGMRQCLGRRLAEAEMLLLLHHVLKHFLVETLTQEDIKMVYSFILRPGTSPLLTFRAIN
Experimental: Determination of IC50 Vs CYP11B1/CYP11B2 by Measurement of Cortisol/Aldosterone Synthesis
This assay was performed in a standard 384-well plate design using cultured V79 cells stably expressing human CYP11B1 or human CYP11B2. Test compounds at 10 concentrations (for example, 10000, 3333.3, 1111.1, 370.4, 123.5, 41.2, 13.7, 4.6, 1.5 and 0.5 nM) were added in 384-well plate after the cell-seeding procedure. The incubation substrate contains 1500 nM RSS for CYP11B1 assay/750 nM DOC for CYP11B2 assay. The Cortisol/Aldosterone production of cell culture supernatant was determined by Cortisol/Aldosterone HTRF kit after for about 15 hours incubation at RT (protect from light). IC50 values were calculated from the percent inhibition observed for each test compound at 10 concentrations.
The assay plate was read using Envision (Perkin Elmer, Waltham, Mass.) at 665 nm and 590 nm (using Filter Barcode of 217#, 205#; Mirror Barcode of 446#).
Data are analyzed using Assay Data Analyzer. All ratio data (665 nm/590 nm) are back calculated according to the standard curve, resulting in Cortisol/Aldosterone concentrations. IC50 values are reported as the Inflection Point (IP) of a four parameter fit of the titration data.
The following equation was used to calculate the % inhibition: % Activity=100×{1−(Sample_back calculated Cortisol/Aldosterone concentration−LC_back calculated Cortisol/Aldosterone concentration)/(HC_back calculated Cortisol/Aldosterone concentration−LC_back calculated Cortisol/Aldosterone concentration)} Curve Fitting: Four Parameter Logistic: […]

T1 sequence (P08684 2-503): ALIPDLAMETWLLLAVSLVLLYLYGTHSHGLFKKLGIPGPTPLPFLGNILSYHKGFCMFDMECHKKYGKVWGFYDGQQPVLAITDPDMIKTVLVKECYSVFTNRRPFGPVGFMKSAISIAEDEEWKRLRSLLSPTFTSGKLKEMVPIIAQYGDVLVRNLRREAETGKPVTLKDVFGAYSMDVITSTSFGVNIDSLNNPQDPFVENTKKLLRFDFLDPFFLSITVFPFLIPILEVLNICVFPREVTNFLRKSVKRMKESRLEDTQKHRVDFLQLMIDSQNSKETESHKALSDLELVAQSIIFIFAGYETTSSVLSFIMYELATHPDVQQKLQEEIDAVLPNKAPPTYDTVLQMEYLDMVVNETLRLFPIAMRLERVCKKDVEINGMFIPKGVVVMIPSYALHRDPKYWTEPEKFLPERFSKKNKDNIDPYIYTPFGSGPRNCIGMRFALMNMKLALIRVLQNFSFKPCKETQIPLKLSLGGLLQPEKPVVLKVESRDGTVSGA
T2 sequence (P10635 whole entry): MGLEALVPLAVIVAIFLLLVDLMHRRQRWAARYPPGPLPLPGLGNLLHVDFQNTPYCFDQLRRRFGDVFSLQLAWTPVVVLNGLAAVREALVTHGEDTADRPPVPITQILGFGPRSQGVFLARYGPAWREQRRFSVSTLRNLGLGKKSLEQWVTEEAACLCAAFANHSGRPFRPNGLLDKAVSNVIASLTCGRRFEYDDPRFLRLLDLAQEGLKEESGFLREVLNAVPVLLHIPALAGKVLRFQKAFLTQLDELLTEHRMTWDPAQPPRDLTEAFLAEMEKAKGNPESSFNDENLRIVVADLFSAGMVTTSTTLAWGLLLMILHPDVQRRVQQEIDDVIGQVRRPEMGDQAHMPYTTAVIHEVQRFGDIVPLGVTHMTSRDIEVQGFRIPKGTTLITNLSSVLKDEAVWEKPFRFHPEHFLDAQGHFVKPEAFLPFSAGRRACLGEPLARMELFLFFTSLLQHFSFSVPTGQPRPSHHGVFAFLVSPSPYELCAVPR

## COCC(c1cncn1[C@H](C)c1ccc(F)cc1)N1CCN(S(=O)(=O)c2cnc(N3CCN(C)CC3)s2)CC1 (single isomer, unassigned) [Compound 35]
[1]
  IC50: 0.0038 µM
[2]
  IC50: 8.89 µM
[3]
  IC50: 5 µM

## COCCC(c1cncn1[C@H](C)c1ccc(F)cc1)N1CCN(S(=O)(=O)c2cnc(N3CCN(C)CC3)s2)CC1 (single isomer, unassigned) [Compound 36]
[1]
  IC50: 0.0043 µM
[2]
  IC50: 4.08 µM
[3]
  IC50: 3.83 µM

## C[C@H](c1ccc(F)cc1)n1cncc1C1CCCC2CN(S(=O)(=O)c3cnc(Nc4ccccn4)s3)CCN21 (single isomer, unassigned) [Compound 38]
[1]
  IC50: 0.0025 µM
[2]
  IC50: 7.13 µM
[3]
  IC50: 1.31 µM
